Source: US8466168B2, “Tricyclic alkylaminomethyloxazolidinone derivatives” (Actellon Pharmaceuticals Ltd., priority 2008, dated 2013)

Each compound was assayed on S. aureus A798 (assay: MIC determination by microdilution in cation-adjusted Mueller-Hinton Broth (CLSI M7-A7)). Settings: Staphylococcus aureus, microdilution method, strain S. aureus A798.
Assay type: cell-based
Description: Minimal inhibitory concentrations (MICs; mg/l) were determined in cation-adjusted Mueller-Hinton Broth by a microdilution method following the description given in “Methods for Dilution Antimicrobial Susceptibility Tests for Bacteria that Grow Aerobically”, Approved standard, 7th ed., Clinical and Laboratory Standards Institute (CLSI) Document M7-A7, Wayne, Pa., USA, 2006. All Example compounds were tested against several Gram positive and Gram negative bacteria such as S. aureus, E. faecalis, S. pneumoniae, M catarrhalis, A. baumanii, E. coli or P. aeruginosa.
In the case of `COc1ccc2ccc3c(c2n1)CC(CNC[C@@H]1CN(c2ccc4c(c2)NC(=O)CS4)C(=O)O1)CO3` (mixture of isomers) [Example 1, 6-((R)-5-{[((RS)-6-methoxy-3,4-dihydro-2H-1-oxa-5-aza-phenanthren-3-ylmethyl)-amino]-methyl}-2-oxo-oxazolidin-3-yl)-4H-benzo[1,4]thiazin-3-one], the MIC is reported as ≤ 0.031 µg/mL.
`COc1ccc2ccc3c(c2n1)CC(CNC[C@@H]1CN(c2ccc4c(c2)NC(=O)CO4)C(=O)O1)CO3` (mixture of isomers) [Example 2, 6-((R)-5-{[((RS)-6-methoxy-3,4-dihydro-2H-1-oxa-5-aza-phenanthren-3-ylmethyl)-amino]-methyl}-2-oxo-oxazolidin-3-yl)-4H-benzo[1,4]oxazin-3-one] was tested, and the MIC was ≤ 0.031 µg/mL.
For `COc1ccc2ncc3c(c2n1)CC(CNC[C@@H]1CN(c2ccc4c(c2)NC(=O)CO4)C(=O)O1)CO3` (mixture of isomers) [Example 3, 6-((R)-5-{[((RS)-6-methoxy-3,4-dihydro-2H-1-oxa-5,9-diaza-phenanthren-3-ylmethyl)-amino]-methyl}-2-oxo-oxazolidin-3-yl)-4H-benzo[1,4]oxazin-3-one], the MIC was ≤ 0.031 µg/mL.
In the case of `COc1ccc2ncc3c(c2n1)CC(CNC[C@@H]1CN(c2ccc4c(c2)NC(=O)CS4)C(=O)O1)CO3` (mixture of isomers) [Example 4, 6-((R)-5-{[((RS)-6-methoxy-3,4-dihydro-2H-1-oxa-5,9-diaza-phenanthren-3-ylmethyl)-amino]-methyl}-2-oxo-oxazolidin-3-yl)-4H-benzo[1,4]thiazin-3-one], the MIC is reported as ≤ 0.031 µg/mL.
For `COc1ccc2ncc3c(c2n1)CC(CNC[C@@H]1CN(c2ccc4c(c2)NC(=O)CS4)C(=O)O1)CN3` (mixture of isomers) [Example 5, 6-((R)-5-{[((RS)-6-methoxy-1,2,3,4-tetrahydro-1,5,9-triaza-phenanthren-3-ylmethyl)-amino]-methyl}-2-oxo-oxazolidin-3-yl)-4H-benzo[1,4]thiazin-3-one], the MIC was ≤ 0.031 µg/mL.
In the case of `COc1ccc2ccc3c(c2n1)C(CCNC[C@@H]1CN(c2ccc4c(c2)NC(=O)CS4)C(=O)O1)CO3` (mixture of isomers) [Example 6, 6-((R)-5-{[2-((RS)-2-methoxy-8,9-dihydro-furo[2,3-h]quinolin-9-yl)-ethylamino]-methyl}-2-oxo-oxazolidin-3-yl)-4H-benzo[1,4]thiazin-3-one], the MIC is reported as ≤ 0.031 µg/mL.
In the case of `COc1ccc2ccc3c(c2n1)C(CCNC[C@@H]1CN(c2ccc4c(c2)NC(=O)CO4)C(=O)O1)CO3` (mixture of isomers) [Example 7, 6-((R)-5-{[2-((RS)-2-methoxy-8,9-dihydro-furo[2,3-h]quinolin-9-yl)-ethylamino]-methyl}-2-oxo-oxazolidin-3-yl)-4H-benzo[1,4]oxazin-3-one], the MIC is reported as ≤ 0.031 µg/mL.
In the case of `COc1ccc2ccc3c(c2n1)C(CNC[C@@H]1CN(c2ccc4c(c2)NC(=O)CS4)C(=O)O1)CO3` (mixture of isomers) [Example 8, 6-((R)-5-{[((RS)-2-methoxy-8,9-dihydro-furo[2,3-h]quinolin-9-ylmethyl)-amino]-methyl}-2-oxo-oxazolidin-3-yl)-4H-benzo[1,4]thiazin-3-one], the MIC is reported as ≤ 0.031 µg/mL.
For `COc1ccc2ncc3c(c2n1)C(CCNC[C@@H]1CN(c2ccc4c(c2)NC(=O)CS4)C(=O)O1)CO3` (mixture of isomers) [Example 9, 6-((R)-5-{[2-((RS)-8-methoxy-1,2-dihydro-3-oxa-5,9-diaza-cyclopenta[a]naphthalen-1-yl)-ethylamino]-methyl}-2-oxo-oxazolidin-3-yl)-4H-benzo[1,4]thiazin-3-one], the MIC was ≤ 0.031 µg/mL.
With `COc1ccc2ncc3c(c2n1)C(CCNC[C@@H]1CN(c2ccc4c(c2)NC(=O)CO4)C(=O)O1)CO3` (mixture of isomers) [Example 10, 6-((R)-5-{[2-((RS)-8-methoxy-1,2-dihydro-3-oxa-5,9-diaza-cyclopenta[a]naphthalen-1-yl)-ethylamino]-methyl}-2-oxo-oxazolidin-3-yl)-4H-benzo[1,4]oxazin-3-one] the MIC was ≤ 0.031 µg/mL.
Work on `COc1ccc2ncc3c(c2n1)C(CCNC[C@@H]1CN(c2ccc(C)c(F)c2)C(=O)O1)CO3` (mixture of isomers) [Example 11, (R)-3-(3-fluoro-4-methyl-phenyl)-5-{[2-((RS)-8-methoxy-1,2-dihydro-3-oxa-5,9-diaza-cyclopenta[a]naphthalen-1-yl)-ethylamino]-methyl}-oxazolidin-2-one] yielded an MIC of 0.25 µg/mL.
For `COc1ccc2ncc3c(c2n1)C(CCNC[C@H]1CN(c2ccc4c(c2)NC(=O)CS4)C(=O)O1)CO3` (mixture of isomers) [Example 12, 6-((S)-5-{[2-((RS)-8-methoxy-1,2-dihydro-3-oxa-5,9-diaza-cyclopenta[a]naphthalen-1-yl)-ethylamino]-methyl}-2-oxo-oxazolidin-3-yl)-4H-benzo[1,4]thiazin-3-one], the MIC was ≤ 0.031 µg/mL.
`COc1ccc2ncc3c(c2n1)C(CCNCC[C@@H]1CN(c2ccc4c(c2)NC(=O)CS4)C(=O)O1)CO3` (mixture of isomers) [Example 13, 6-((R)-5-{2-[2-((RS)-8-methoxy-1,2-dihydro-3-oxa-5,9-diaza-cyclopenta[a]naphthalen-1-yl)-ethylamino]-ethyl}-2-oxo-oxazolidin-3-yl)-4H-benzo[1,4]thiazin-3-one] was tested, and the MIC was ≤ 0.031 µg/mL.
For `COc1ccc2ncc3c(c2n1)C(CNCC[C@@H]1CN(c2ccc4c(c2)NC(=O)CS4)C(=O)O1)CO3` (mixture of isomers) [Example 14, 6-((R)-5-{2-[((RS)-8-methoxy-1,2-dihydro-3-oxa-5,9-diaza-cyclopenta[a]naphthalen-1-ylmethyl)-amino]-ethyl}-2-oxo-oxazolidin-3-yl)-4H-benzo[1,4]thiazin-3-one], the MIC was ≤ 0.031 µg/mL.
In the case of `COc1ccc2ncc3c(c2n1)C(CNCC[C@H]1CN(c2ccc4c(c2)NC(=O)CS4)C(=O)O1)CO3` (mixture of isomers) [Example 15, 6-((S)-5-{2-[((RS)-8-methoxy-1,2-dihydro-3-oxa-5,9-diaza-cyclopenta[a]naphthalen-1-ylmethyl)-amino]-ethyl}-2-oxo-oxazolidin-3-yl)-4H-benzo[1,4]thiazin-3-one], the MIC is reported as ≤ 0.031 µg/mL.
For `COc1ccc2ncc3c(c2n1)C(CCNC(=O)[C@@H]1CN(c2ccc4c(c2)OCCO4)C(=O)O1)CO3` (mixture of isomers) [Example 16, (S)-3-(2,3-dihydro-benzo[1,4]dioxin-6-yl)-2-oxo-oxazolidine-5-carboxylic acid [2-((RS)-8-methoxy-1,2-dihydro-3-oxa-5,9-diaza-cyclopenta[a]naphthalen-1-yl)-ethyl]-amide], the MIC was ≤ 0.031 µg/mL.
For `COc1ccc2ncc3c(c2n1)CC(CNC[C@@H]1CN(c2ccc4c(c2)NC(=O)CS4)C(=O)O1)O3` (mixture of isomers) [Example 17, 6-((R)-5-{[((RS)-8-methoxy-1,2-dihydro-3-oxa-5,9-diaza-cyclopenta[a]naphthalen-2-ylmethyl)-amino]-methyl}-2-oxo-oxazolidin-3-yl)-4H-benzo[1,4]thiazin-3-one], the MIC was ≤ 0.031 µg/mL.
In the case of `COc1ccc2ncc3c(c2n1)CC(CNCC[C@@H]1CN(c2ccc4c(c2)NC(=O)CO4)C(=O)O1)O3` (mixture of isomers) [Example 18, 6-((R)-5-{2-[((RS)-8-methoxy-1,2-dihydro-3-oxa-5,9-diaza-cyclopenta[a]naphthalen-2-ylmethyl)-amino]-ethyl}-2-oxo-oxazolidin-3-yl)-4H-benzo[1,4]oxazin-3-one], the MIC is reported as ≤ 0.031 µg/mL.
With `COc1ccc2ncc3c(c2n1)CC(CNCC[C@@H]1CN(c2ccc4c(c2)NC(=O)CS4)C(=O)O1)O3` (mixture of isomers) [Example 19, 6-((R)-5-{2-[((RS)-8-methoxy-1,2-dihydro-3-oxa-5,9-diaza-cyclopenta[a]naphthalen-2-ylmethyl)-amino]-ethyl}-2-oxo-oxazolidin-3-yl)-4H-benzo[1,4]thiazin-3-one] the MIC was ≤ 0.031 µg/mL.
For `COc1ccc2ncc3c(c2n1)[C@@H](CCNCC1CN(c2ccc4c(c2)OCCO4)C(=O)O1)CO3` (mixture of isomers) [Example 20, (RS)-3-(2,3-dihydro-benzo[1,4]dioxin-6-yl)-5-{[2-((R)-8-methoxy-1,2-dihydro-3-oxa-5,9-diaza-cyclopenta[a]naphthalen-1-yl)-ethylamino]-methyl}-oxazolidin-2-one], the MIC was 1 µg/mL.
